Assay results published in publication PMC7953027 (Journal of Pesticide Science, 2021).

Assays:
A. albopictus larvae = experiment: Larvicidal assay on second-instar larvae; assay type: in vivo, Aedes albopictus; details: for mortality at 1 µM / LC50: Aedes albopictus, 72 h; for mortality at 1 µM: read-out: Mortality (%) at 1 µM Obsd.; for LC50: read-out: pLC50 (M) (converted); for Logit A Obsd.: logit-transformed mortality at 1 µM based on Eq. 1; for larvicidal activity (in words): 1 µM, 3 days
Aedes albopictus EcRs = biological target: T1, Aedes albopictus EcRs (Aedes albopictus, UniProt Q9U3Y4); assay type: binding; details: for pIC50 (M): Series II, [3H]PonA binding, NIAS-AeAl-2 cells, 30 min, 25°C, mean±SD; for change in binding potency compared to the parent compound: 21, 22, 23 vs. 1, 28, 31 vs. 22
T1 sequence (Q9U3Y4 1-680): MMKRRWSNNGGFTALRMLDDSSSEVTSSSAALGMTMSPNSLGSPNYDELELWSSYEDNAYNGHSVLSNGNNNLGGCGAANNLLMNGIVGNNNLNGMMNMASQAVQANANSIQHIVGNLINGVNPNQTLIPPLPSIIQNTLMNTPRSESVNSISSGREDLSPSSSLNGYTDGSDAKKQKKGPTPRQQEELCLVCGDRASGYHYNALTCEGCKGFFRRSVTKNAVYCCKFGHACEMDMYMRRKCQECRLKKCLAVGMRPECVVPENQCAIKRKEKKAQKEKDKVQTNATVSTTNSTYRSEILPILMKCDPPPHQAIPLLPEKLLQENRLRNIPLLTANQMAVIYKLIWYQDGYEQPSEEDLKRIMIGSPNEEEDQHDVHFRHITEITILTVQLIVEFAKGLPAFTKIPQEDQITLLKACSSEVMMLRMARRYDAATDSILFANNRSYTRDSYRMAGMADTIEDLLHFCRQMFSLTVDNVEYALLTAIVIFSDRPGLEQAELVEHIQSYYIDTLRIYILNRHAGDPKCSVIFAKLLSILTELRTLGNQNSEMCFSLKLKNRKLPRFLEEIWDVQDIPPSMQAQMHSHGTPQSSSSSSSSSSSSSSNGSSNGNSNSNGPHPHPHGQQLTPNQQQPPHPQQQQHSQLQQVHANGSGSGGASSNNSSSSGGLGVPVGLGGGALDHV
T1 sequence (Q9U3Y3 1-485 partner): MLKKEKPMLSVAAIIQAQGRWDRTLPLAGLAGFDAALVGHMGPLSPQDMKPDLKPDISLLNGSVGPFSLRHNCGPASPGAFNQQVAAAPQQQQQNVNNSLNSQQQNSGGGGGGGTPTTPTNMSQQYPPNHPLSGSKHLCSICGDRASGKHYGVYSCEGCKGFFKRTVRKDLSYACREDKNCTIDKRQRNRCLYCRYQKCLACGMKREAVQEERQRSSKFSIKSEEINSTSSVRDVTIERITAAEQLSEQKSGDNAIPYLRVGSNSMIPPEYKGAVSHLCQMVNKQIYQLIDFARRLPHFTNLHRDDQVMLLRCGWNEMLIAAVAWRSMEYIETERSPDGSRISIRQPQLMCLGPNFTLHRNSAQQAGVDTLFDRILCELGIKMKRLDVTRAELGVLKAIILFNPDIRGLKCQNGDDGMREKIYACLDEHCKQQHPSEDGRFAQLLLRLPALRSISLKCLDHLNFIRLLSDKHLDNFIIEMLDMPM

For `C[C@@H]1C[C@H](Nc2ccccc2)c2cc(F)ccc2N1C(=O)c1ccnc(F)c1` [Compound 32], the mortality at 1 µM (A. albopictus larvae) was 74 ± 11%, the LC50 (A. albopictus larvae) was 4.68e-07 M and the “Logit A Obsd.” value (A. albopictus larvae) was 0.44. The “pIC50 (M)” value (Aedes albopictus EcRs) was 7.47±0.08 (2) M.

`Cc1ccc(C(=O)N2c3ccc(F)cc3[C@@H](Nc3ccccc3)C[C@H]2C)cn1` [Compound 28] was tested, and the mortality at 1 µM (A. albopictus larvae) was 11%, the “Logit A Obsd.” value (A. albopictus larvae) was −0.91 and the “change in binding potency compared to the parent compound” value (from here on “change in binding potency”) (Aedes albopictus EcRs) was “equipotent”. For the same molecule, the “pIC50 (M)” value (Aedes albopictus EcRs) was 6.64±0.08 (2) M.

For `C[C@@H]1C[C@H](Nc2ccccc2)c2cc(F)ccc2N1C(=O)c1ccncn1` [Compound 24], the mortality at 1 µM (A. albopictus larvae) was 10%, the “Logit A Obsd.” value (A. albopictus larvae) was −0.95 and the “pIC50 (M)” value (Aedes albopictus EcRs) was 6.67±0.03 (2) M.

With `C[C@@H]1C[C@H](Nc2ccccc2)c2cc(F)ccc2N1C(=O)c1ccncc1` [Compound 23, (2R,4S)-6-fluoro-2-methyl-4-(phenylamino)-1-(4-pyridylcarbonyl)-1,2,3,4-tetrahydroquinoline] the mortality at 1 µM (A. albopictus larvae) was 36 ± 14%, the LC50 (A. albopictus larvae) was 2.57e-06 M and the “Logit A Obsd.” value (A. albopictus larvae) was −0.24. The “change in binding potency” value (Aedes albopictus EcRs) was “eightfold gain in potency” and the “pIC50 (M)” value (Aedes albopictus EcRs) was 7.29±0.03 (2) M.

In the case of `C[C@@H]1C[C@H](Nc2ccccc2)c2cc(F)ccc2N1C(=O)c1cnc(Cl)nc1` [Compound 27], the mortality at 1 µM (A. albopictus larvae) is reported as 16%, the “Logit A Obsd.” value (A. albopictus larvae) is reported as −0.72 and the “pIC50 (M)” value (Aedes albopictus EcRs) is reported as 6.11±0.12 (2) M.

In the case of `C[C@@H]1C[C@H](Nc2ccccc2)c2cc(F)ccc2N1C(=O)c1ccc(C#N)nc1` [Compound 31], the mortality at 1 µM (A. albopictus larvae) is reported as 77 ± 19%, the LC50 (A. albopictus larvae) is reported as 5.13e-07 M and the “Logit A Obsd.” value (A. albopictus larvae) is reported as 0.51. The “change in binding potency” value (Aedes albopictus EcRs) was “sevenfold gain in potency” and the “pIC50 (M)” value (Aedes albopictus EcRs) was 7.61±0.08 (2) M.

With `C[C@@H]1C[C@H](Nc2ccccc2)c2cc(F)ccc2N1C(=O)c1ccnnc1` [Compound 25] the mortality at 1 µM (A. albopictus larvae) was 10%, the “Logit A Obsd.” value (A. albopictus larvae) was −0.95 and the “pIC50 (M)” value (Aedes albopictus EcRs) was 6.51±0.13 (2) M.

With `C[C@@H]1C[C@H](Nc2ccccc2)c2cc(F)ccc2N1C(=O)c1cccnc1` [Compound 22] the “larvicidal activity (in words)” value (A. albopictus larvae) was “did not show larvicidal activity”, the mortality at 1 µM (A. albopictus larvae) was 0% and the “pIC50 (M)” value (Aedes albopictus EcRs) was 6.76±0.15 (2) M.

With `C[C@@H]1C[C@H](Nc2ccccc2)c2cc(F)ccc2N1C(=O)c1ccccn1` [Compound 21, (2R,4S)-6-fluoro-2-methyl-4-(phenylamino)-1-(2-pyridylcarbonyl)-1,2,3,4-tetrahydroquinoline] the “larvicidal activity (in words)” value (A. albopictus larvae) was “did not show larvicidal activity”, the mortality at 1 µM (A. albopictus larvae) was 0% and the “change in binding potency” value (Aedes albopictus EcRs) was “threefold loss in potency”. The “pIC50 (M)” value (Aedes albopictus EcRs) was 5.93±0.08 (2) M.

With `C[C@@H]1C[C@H](Nc2ccccc2)c2cc(F)ccc2N1C(=O)c1ccc(C(F)(F)F)nc1` [Compound 30] the mortality at 1 µM (A. albopictus larvae) was 44 ± 24%, the LC50 (A. albopictus larvae) was 9.55e-07 M and the “Logit A Obsd.” value (A. albopictus larvae) was −0.10. For the same molecule, the “pIC50 (M)” value (Aedes albopictus EcRs) was 7.03±0.00 (2) M.

In the case of `C[C@@H]1C[C@H](Nc2ccccc2)c2cc(F)ccc2N1C(=O)c1ccnc(C#N)c1` [Compound 35], the “larvicidal activity (in words)” value (A. albopictus larvae) is reported as “did not show larvicidal activity”, the mortality at 1 µM (A. albopictus larvae) is reported as 0% and the “pIC50 (M)” value (Aedes albopictus EcRs) is reported as 6.55±0.07 (2) M.

`C[C@@H]1C[C@H](Nc2ccccc2)c2cc(F)ccc2N1C(=O)c1cncnc1` [Compound 26] was tested, and the mortality at 1 µM (A. albopictus larvae) was 5%, the “Logit A Obsd.” value (A. albopictus larvae) was −1.28 and the “pIC50 (M)” value (Aedes albopictus EcRs) was 6.37±0.02 (2) M.

In the case of `C[C@@H]1C[C@H](Nc2ccccc2)c2cc(F)ccc2N1C(=O)c1ccnc(C(F)(F)F)c1` [Compound 34], the “larvicidal activity (in words)” value (A. albopictus larvae) is reported as “did not show larvicidal activity”, the mortality at 1 µM (A. albopictus larvae) is reported as 0% and the “pIC50 (M)” value (Aedes albopictus EcRs) is reported as 6.56±0.04 (2) M.

For `C[C@@H]1C[C@H](Nc2ccccc2)c2cc(F)ccc2N1C(=O)c1ccc(Cl)nc1` [Compound 29], the mortality at 1 µM (A. albopictus larvae) was 80%, the LC50 (A. albopictus larvae) was 4.57e-07 M and the “Logit A Obsd.” value (A. albopictus larvae) was 0.60. For the same molecule, the “pIC50 (M)” value (Aedes albopictus EcRs) was 7.09±0.07 (2) M.
